Entries after “also recorded” stand apart in the source; their conditions may differ.
Experiments:
PXR LBD = molecular target: T1, PXR LBD (Homo sapiens, UniProt O75469); assay: One-hybrid PXR LBD reporter gene assay in Caco-2 cells; type: cell-based; conditions: 24 h exposure, FIG. 3
T1 construct: validated using a one-hybrid PXR LBD reporter assay; expressed in transfected cells; host or cells: Caco-2
T1 sequence (O75469 146-433 limits assumed): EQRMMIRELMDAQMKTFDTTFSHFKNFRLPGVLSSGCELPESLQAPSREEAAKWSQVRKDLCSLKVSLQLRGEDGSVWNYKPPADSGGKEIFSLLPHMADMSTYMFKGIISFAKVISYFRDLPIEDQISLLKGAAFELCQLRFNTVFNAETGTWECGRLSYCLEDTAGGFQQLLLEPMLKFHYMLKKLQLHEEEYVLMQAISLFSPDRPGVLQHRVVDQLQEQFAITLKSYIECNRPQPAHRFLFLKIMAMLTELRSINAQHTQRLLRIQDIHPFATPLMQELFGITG
Method: FIG. 3. One-hybrid PXR reporter gene assay. Performed in Caco-2 cells as a 24 h exposure to FKK5 at two different concentrations.

[1] = system: CAR, constitutive androstane receptor; assay: Nuclear receptor transactivation assay in Caco-2 cells (CAR); type: cell-based; conditions: FIG. 4
Method: (§1) FIG. 4. Nuclear Receptor transactivation assays in caco-2 (day 0) cells. Methods used are published (33). Assays were performed at least two times in triplicate CAR, constitutive androstane receptor; TCBOPOP, CAR ligand; LXR, Liver X receptor; T0901315, LXR ligand. n.s, not significant.
(§2) IPA/Indoles can have weak (˜2 fold) but important effects on the activation of other nuclear receptors (e.g., CAR, LXR) (33). […] Some receptors, specifically CAR and LXR, can act to induce liver steatosis (79, 83-86) and hepatocarcinogenesis (CAR) (80, 84, 87-89) and thus, avoiding excessive activation of these nuclear receptors in the context of PXR activation would be important. […] CDK5 (along with CDK2) are important kinases that phosphorylate and inhibit PXR activation (90). Accordingly, based on the data, it is unlikely that FKK5 activates PXR via inhibition of CDK5.

LXR, Liver X receptor = assay: Nuclear receptor transactivation assay in Caco-2 cells (LXR); type: cell-based; conditions: FIG. 4
Method: as §1, §2

CDK5/p25 enzyme = CDK5/p25 enzyme (Homo sapiens, UniProt Q00535); assay: ADP-Glo kinase assay with CDK5/p25 enzyme; type: biochemical; conditions: up to 20 μM
Method: FIG. 5. ADP-Glo kinase with CDK5/p25 enzyme. Michaelis-Menton fit of RLU values across FKK5 concentrations after enzyme and time of incubation was optimized. The fit is nearly similar with one curve describing all concentration effects. Km˜0.01483; Ki˜4.656e+099; Vmax˜53380.
as §2

plated hepatocytes = assay: LDH release assay in plated hepatocytes; type: cell-based; conditions: 24 h and 48 h exposure; FIG. 1
Method: FIG. 1A-1B. FKK compound cytotoxicity assay. (A) MTT cell cytotoxicity assay in LS180 cells lines (NCBI Bookshelf: world wide web ncbi.nlm.nih.gov/books/NBK144065/). […] (B) LDH release assay performed in plated hepatocytes after a 24 h and 48 h exposure. For both panels, assays were performed at least two times in triplicate.
A very unique feature of simple indole structures (FKK1-10) is that they are predicted to have very short systemic residence times limiting systemic drug exposure and any potential for off-target effects in organs other than the intestines (78).

PXR = molecular target: T2, PXR (Homo sapiens, UniProt O75469); assay: Isothermic titration calorimetry (ITC); type: binding; conditions: FIG. 11
T2 sequence (O75469 1-434): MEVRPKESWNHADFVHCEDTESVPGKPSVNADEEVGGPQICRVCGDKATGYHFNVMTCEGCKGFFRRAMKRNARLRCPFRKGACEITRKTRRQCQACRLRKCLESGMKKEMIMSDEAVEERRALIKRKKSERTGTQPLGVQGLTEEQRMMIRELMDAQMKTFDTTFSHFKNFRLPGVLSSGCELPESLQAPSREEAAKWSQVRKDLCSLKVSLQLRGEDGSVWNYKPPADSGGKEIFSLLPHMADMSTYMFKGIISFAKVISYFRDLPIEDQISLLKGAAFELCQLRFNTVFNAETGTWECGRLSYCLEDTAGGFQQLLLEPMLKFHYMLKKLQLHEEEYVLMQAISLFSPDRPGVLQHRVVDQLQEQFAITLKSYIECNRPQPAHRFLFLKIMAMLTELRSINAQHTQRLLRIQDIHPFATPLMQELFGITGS

IL-8 = assay: TNF-induced IL-8 in human intestinal organoids; type: cell-based; conditions: initial experiment n=2, FIG. 12
Text: Intestinal organoids were developed using human small intestines and stem cell isolation and propagation in vitro.

CDK5/p25 enzyme, sequence (Q00535 whole entry, species assumed): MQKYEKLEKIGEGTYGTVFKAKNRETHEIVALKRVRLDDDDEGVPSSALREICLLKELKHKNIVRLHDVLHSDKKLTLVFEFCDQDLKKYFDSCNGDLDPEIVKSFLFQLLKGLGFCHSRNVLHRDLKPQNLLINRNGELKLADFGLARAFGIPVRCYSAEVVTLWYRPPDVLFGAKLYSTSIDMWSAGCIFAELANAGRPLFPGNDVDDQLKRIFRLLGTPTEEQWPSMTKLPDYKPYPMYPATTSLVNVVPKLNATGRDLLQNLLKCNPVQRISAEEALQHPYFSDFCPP
CDK5/p25 enzyme, sequence (Q15078 99-307 partner limits assumed, species assumed): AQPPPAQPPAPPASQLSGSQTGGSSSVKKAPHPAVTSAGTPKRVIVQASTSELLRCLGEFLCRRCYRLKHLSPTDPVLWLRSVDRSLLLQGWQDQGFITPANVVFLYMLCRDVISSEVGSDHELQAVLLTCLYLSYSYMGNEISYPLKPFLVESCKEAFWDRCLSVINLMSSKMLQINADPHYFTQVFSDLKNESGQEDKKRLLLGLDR

With O=C(c1ccncc1)c1cc2ccccc2n1S(=O)(=O)c1ccccc1 [FKK5] the “activation of PXR” value (PXR LBD) was about 5 fold, the CAR activation [1] was “does not activate” and the “CAR function with increasing concentrations” value [1] was “CAR function is inhibited”. The LXR activation (LXR, Liver X receptor) was “does not activate”, the “inhibition of CDK5/p25 enzyme” value (CDK5/p25 enzyme) was “does not inhibit” and the cytotoxicity in hepatocytes (plated hepatocytes) was “no cytotoxicity observed”. For the same molecule, the “binding to human PXR” value (PXR) was “efficient and direct binding” and the “TNF-induced IL-8 expression” value (IL-8) was “significant attenuation; also recorded: reduces pro-inflammatory cytokine IL-8 expression”.

Reference: patent US11724998B2, “PXR agonists and uses thereof for gut barrier dysfunction treatment and prevention” (Albert Einstein College of Medicine, priority 2017, dated 2023)
